Where “and” joins values, the source holds several entries; their conditions need not be identical. Equal entries are not always repeated.
Legend:
H1975 cells = assay: CCK-8 antiproliferation assay, H1975; settings: for Inhibitory efficacy: H1975 cells
H460 cells = assay: CCK-8 antiproliferation assay, H460
PC-9 cells = assay: CCK-8 antiproliferation assay, PC-9
A549 cells = assay: CCK-8 antiproliferation assay, A549; settings: Homo sapiens, A549, 48 h, read-out: IC50 (μM) A549, CCK-8, 48 h, average ± SD of three independent experiments
wild-type EGFR = wild-type EGFR (Homo sapiens, UniProt P00533); assay: EGFR kinase assay (ELISA); settings: for A450: raw ELISA absorbance
Chain of wild-type EGFR (P00533 25-1210): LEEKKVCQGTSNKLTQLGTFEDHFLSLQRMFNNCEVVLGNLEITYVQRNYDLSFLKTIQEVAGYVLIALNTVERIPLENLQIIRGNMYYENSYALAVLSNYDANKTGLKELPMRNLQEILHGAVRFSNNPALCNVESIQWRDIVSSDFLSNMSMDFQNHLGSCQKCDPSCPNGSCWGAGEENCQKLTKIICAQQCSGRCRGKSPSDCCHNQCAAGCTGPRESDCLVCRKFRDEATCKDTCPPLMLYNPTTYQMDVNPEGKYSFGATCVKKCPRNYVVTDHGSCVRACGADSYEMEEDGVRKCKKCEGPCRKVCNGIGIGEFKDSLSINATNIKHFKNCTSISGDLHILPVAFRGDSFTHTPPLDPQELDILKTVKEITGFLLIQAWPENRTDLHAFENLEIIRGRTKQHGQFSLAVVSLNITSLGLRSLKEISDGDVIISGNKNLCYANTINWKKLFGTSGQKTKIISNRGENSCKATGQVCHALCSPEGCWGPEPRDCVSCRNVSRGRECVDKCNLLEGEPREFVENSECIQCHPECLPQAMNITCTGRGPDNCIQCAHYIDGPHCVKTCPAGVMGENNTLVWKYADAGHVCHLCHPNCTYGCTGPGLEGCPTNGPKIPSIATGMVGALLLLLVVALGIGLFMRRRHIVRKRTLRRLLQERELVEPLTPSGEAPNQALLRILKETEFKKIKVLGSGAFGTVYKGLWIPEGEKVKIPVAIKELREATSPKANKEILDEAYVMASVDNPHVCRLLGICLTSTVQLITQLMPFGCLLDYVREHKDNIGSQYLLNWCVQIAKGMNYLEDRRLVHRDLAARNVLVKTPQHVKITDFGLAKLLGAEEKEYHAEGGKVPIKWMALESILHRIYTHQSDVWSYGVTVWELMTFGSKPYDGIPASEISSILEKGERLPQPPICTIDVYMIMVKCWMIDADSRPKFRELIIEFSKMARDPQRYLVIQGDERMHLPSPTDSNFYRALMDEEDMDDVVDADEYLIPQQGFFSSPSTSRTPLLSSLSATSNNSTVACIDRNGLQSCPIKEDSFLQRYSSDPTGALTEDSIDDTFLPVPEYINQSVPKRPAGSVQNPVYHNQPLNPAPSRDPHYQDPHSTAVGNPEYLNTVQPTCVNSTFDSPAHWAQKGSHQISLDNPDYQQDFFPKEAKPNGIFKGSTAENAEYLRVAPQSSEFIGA
Description: The kinase enzyme of EGFR was purchased from Carna Bioscience (Kobe, Japan). A total of 10 ng/ml anti phosphotyrosine (PY713) antibody (abcam, Cambridge Science Park, United Kingdom) was precoated in 96-well ELISA plates. […] Then, a total of 3 μmol/L ATP was added and the reaction was continued for 2 h. […] After incubation, the wells were washed with PBS and then incubated with horseradish peroxidase (HRP)-conjugated streptavidin. The wells were visualized using 3,3′,5,5′-tetramethylbenzidine (TMB), and chromogenic reaction was ended with 2 mol/L H2SO4, the absorbance was read with a multimode plate reader (PerkinElmer, United States) at 450 nm.

IC50 (H1975 cells; Homo sapiens, NCI-H1975, 48 h, read-out: IC50 (μM) H1975, CCK-8, 48 h, average ± SD of three independent experiments): > 100 µM
IC50 (H460 cells; Homo sapiens, NCI-H460, 48 h, read-out: IC50 (μM) H460, CCK-8, 48 h, average ± SD of three independent experiments): > 100 µM
IC50 (PC-9 cells; Homo sapiens, PC-9, 48 h, read-out: IC50 (μM) PC-9): > 100 µM
IC50 (A549 cells): > 100 µM
melting point: 89 to 92 °C
IC50 (wild-type EGFR; IC50 (μM) EGFR, ELISA, 3 μmol/L ATP): 1.34 µM
Inhibition (wild-type EGFR; concentration 0.03 nM, one value per replicate column, 3e-05 µM): 3.106 and 6.667
inhibition at 0.0003 µM (wild-type EGFR; concentration 0.3 nM, one value per replicate column): 14.9%
Inhibition (wild-type EGFR; concentration 0.3 nM, one value per replicate column, 0.0003 µM): 12.7273
inhibition at 0.003 µM (wild-type EGFR; concentration 3 nM, one value per replicate column): 15.5%
Inhibition (wild-type EGFR; concentration 3 nM, one value per replicate column, 0.003 µM): 27.2727
inhibition at 0.03 µM (wild-type EGFR; concentration 30 nM, one value per replicate column): 28%
Inhibition (wild-type EGFR; concentration 30 nM, one value per replicate column, 0.03 µM): 34.5455
inhibition at 0.3 µM (wild-type EGFR; concentration 300 nM, one value per replicate column): 34.2%
Inhibition (wild-type EGFR; concentration 300 nM, one value per replicate column, 0.3 µM): 43.6364
inhibition at 3 µM (wild-type EGFR; concentration 3000 nM, one value per replicate column): 43.5%
Inhibition (wild-type EGFR; concentration 3000 nM, one value per replicate column, 3 µM): 45.4545
inhibition at 30 µM (wild-type EGFR; concentration 30000 nM, one value per replicate column): 73.9%
Inhibition (wild-type EGFR; concentration 30000 nM, one value per replicate column, 30 µM): 80.6061
A450 (wild-type EGFR; concentration 0.0001 nM): 0.408 and 0.407
A450 (wild-type EGFR; concentration 0.03 nM): 0.403 and 0.396
A450 (wild-type EGFR; concentration 0.3 nM): 0.384 and 0.386
A450 (wild-type EGFR; concentration 3 nM): 0.383 and 0.362
A450 (wild-type EGFR; concentration 30 nM): 0.363 and 0.35
A450 (wild-type EGFR; concentration 300 nM): 0.353 and 0.335
A450 (wild-type EGFR; concentration 3000 nM): 0.338 and 0.332
A450 (wild-type EGFR; concentration 30000 nM): 0.289 and 0.274
SMILES: COCCOc1cc2ncnc(Nc3cccc(-c4cn(Cc5ccccc5)nn4)c3)c2cc1OCCOC [e1, [3-(1-Benzyl-1H-[1,2,3]triazol-4-yl)-phenyl]-[6,7-bis-(2-methoxy-ethoxy)-quinazolin-4-yl]-amine]
Inhibitory efficacy (H1975 cells; 2uM, given as fraction, Repeat 1-3): 0.214 and 0.1313
Inhibitory efficacy (H1975 cells; 4uM, given as fraction, Repeat 1-3): 0.2001 and 0.2011
Inhibitory efficacy (H1975 cells; 8uM, given as fraction, Repeat 1-3): 0.2439 and 0.3137
Inhibitory efficacy (H1975 cells; 16uM, given as fraction, Repeat 1-3): 0.3018 and 0.3516
inhibition at 2 µM (H1975 cells; Homo sapiens, NCI-H1975, read-out: Inhibitory efficacy, H1975 cells, 2uM, given as fraction, Repeat 1-3): 24.3%
inhibition at 4 µM (H1975 cells; Homo sapiens, NCI-H1975, read-out: Inhibitory efficacy, H1975 cells, 4uM, given as fraction, Repeat 1-3): 28.4%
inhibition at 8 µM (H1975 cells; Homo sapiens, NCI-H1975, read-out: Inhibitory efficacy, H1975 cells, 8uM, given as fraction, Repeat 1-3): 25.2%
inhibition at 16 µM (H1975 cells; Homo sapiens, NCI-H1975, read-out: Inhibitory efficacy, H1975 cells, 16uM, given as fraction, Repeat 1-3): 37.9%
Inhibitory efficacy (H460 cells; H460 cells, 2uM, given as fraction, Repeat 1-3): 0.09593 and 0.09213
inhibition at 2 µM (H460 cells; Homo sapiens, NCI-H460, read-out: Inhibitory efficacy, H460 cells, 2uM, given as fraction, Repeat 1-3): 11.9%
inhibition at 4 µM (PC-9 cells; Homo sapiens, PC-9, read-out: Inhibitory efficacy, PC-9, 4uM, single repeats (Repeat 1-3), given as fraction): 13.4%
Inhibitory efficacy (PC-9 cells; PC-9, 4uM, single repeats (Repeat 1-3), given as fraction, 4 µM): 0.07898 and 0.104

Reference: PMC8776995 (Frontiers in Chemistry, 2022)
